Patent US6316033A, “Compositions for treatment of antibiotic-resistant gram-positive bacterial infections and methods for using and preparing the same” (Marco Polo Technologies, priority 1999, dated 2001)
Converted amounts (≈) assume the structure as drawn. Like-named read-outs stand apart in the source and are kept apart here.

How the values were obtained:
[1] = system: wild-type Staphylococcus aureus; experiment: Minimum inhibitory concentration in liquid culture, wild-type strain; format: cell-based
Description: (§1) Next, the MIC for the total organic solvent extract from A. euchroma, obtained as described in Example 1 above, against wild-type Staphylococcus aureus and antibiotic-resistant Staphylococcus aureus were determined in liquid culture using L-broth with different amounts of total organic solvent extract, and compared to the MIC for common antibiotics.
(§2) More specifically, different concentrations of total organic solvent extract was added to 1.0 ml of L-broth, and inoculated with 50 μl of an overnight growth of bacteria (about 1.0×10^8 cells). The resulting samples were incubated overnight at 37° C. The MIC was then determined by measuring the minimal concentration of extract needed to inhibit the growth of the bacteria.
The MIC of the six individual components were determined using wild-type S. aureus and the liquid culture method as described above.

[2] = system: wild-type Staphylococcus aureus (ATCC 29212); experiment: Disk sensitivity assay, wild-type S. aureus; format: cell-based; details: for zone of inhibition at 2000 µg/mL: Staphylococcus aureus, ATCC29212, 18 h
Description: The antimicrobial activities of the total organic solvent extract from A. euchroma, obtained as described in Example 1 above, and the red colored active fraction from A. euchroma, obtained as described in Example 2 above, were evaluated using a disk sensitivity assay.
(§3) More specifically, wild-type Staphylococcus aureus (ATCC 29212) was grown in Luria broth (L-broth) at 37° C. to exponential phase, diluted to 1.0×10^7 bacteria/ml, and mixed with minimal medium (M63, +salt and glucose) with 0.15% (w/v) soft agar. The mixture was poured over a minimal agar plate (minimal medium +0.7% (w/v) agar). Filter paper disks (6.0 mm in diameter) were then impregnated with 20 μl of total organic solvent extract from A. euchroma (containing 10 mg/ml of naphthaquinone compounds in dimethyl formamide (DMF)); 20 μl of total organic solvent extract from L. erythrorhizon (containing 10 mg/ml of naphthaquinone compounds in DMF); 20 μl of the red colored active fraction from A. euchroma isolated using TLC (10 mg/ml in DMF); 20 μl of the red colored active fraction from A. euchroma isolated using the silica gel column (10 mg/ml in DMF); or 20 μl of DMF as control, and placed on the surface of the agar plates. The plates were then incubated at 37° C. for 18 hrs.
(§4) The disk assay described above was carried out on wild-type S. aureus and antibiotic-resistant S. aureus using 20 μl of the red colored active fraction from A. euchroma isolated using TLC (10 mg/ml in DMF); 20 μl of the red colored active fraction from A. euchroma isolated using the silica gel column (10 mg/ml in DMF); or 20 μl of DMF as a control.
(§5) The anti-microbial activities of the 6 individual components were determined using the disk sensitivity assay described above.
(§6) More specifically, filter paper disks impregnated with 20 μl of each individual component (2.0 mg/ml) were placed on top of the agar plate. The plates were developed as described in Example 4 above.

[3] = system: antibiotic-resistant Staphylococcus aureus (ATCC 27695); experiment: Disk sensitivity assay, antibiotic-resistant S. aureus; format: cell-based; details: for zone of inhibition at 2000 µg/mL: Staphylococcus aureus, ATCC27695, 18 h
Description: as §3
The disk assay described above was carried out using antibiotic-resistant Staphylococcus aureus (ATCC 27695), and 20 μl of the total organic solvent extract from A. euchroma (containing 10 mg/ml of naphthaquinone compounds in DMF); 20 μl of the total organic solvent extract from L. erythrorhizon (containing 10 mg/ml of naphthaquinone compounds in DMF); or 20 μl of DMF as a control.
as §4, §5, §6

[4] = literature (Tanaka et al, 1986); cited from earlier work
[5] = literature (Tanaka et al; Kyogoku et al; Honda et al); cited from earlier work
[6] = system: antibiotic-resistant Staphylococcus aureus; experiment: Minimum inhibitory concentration in liquid culture, antibiotic-resistant strain; format: cell-based; details: read-out: Minimum Inhibitory Concentration (MIC)
Description: as §1, §2

[7] = system: antibiotic-resistant Staphylococcus aureus clinical isolates; experiment: Antibiotic resistance (MIC) of S. aureus clinical isolates; format: cell-based
[8] = wild-type S. aureus, liquid culture, Table 10
[9] = Wild-Type Strain, individual components, 20 μl of 2.0 mg/ml, Table 9
[10] = Antibiotic-resistant Strain, individual components, 20 μl of 2.0 mg/ml, Table 9
[11] = Staphylococcus aureus, read-out: Minimum Inhibitory Concentration (MIC)
[12] = read-out: Antibiotic Resistance (MIC), Strain 3-44
[13] = Strain 3-16, read-out: Antibiotic Resistance (MIC)
[14] = Strain 3-20, read-out: Antibiotic Resistance (MIC)
[15] = Strain 5-37, read-out: Antibiotic Resistance (MIC)
[16] = Strain 5-38, read-out: Antibiotic Resistance (MIC)
[17] = Strain 5-39, read-out: Antibiotic Resistance (MIC)
[18] = Strain 5-47, read-out: Antibiotic Resistance (MIC)
[19] = Staphylococcus aureus, wild-type S. aureus, liquid culture, Table 10, read-out: MIC
[20] = Wild-Type Strain, individual components, 20 μl of 2.0 mg/ml, Table 9, read-out: Zone of inhibition
[21] = Antibiotic-resistant Strain, individual components, 20 μl of 2.0 mg/ml, Table 9, read-out: Zone of inhibition

Work on `CC(C)=CC[C@@H](OC(=O)CC(C)=C(C)C)C1=CC(=O)c2c(O)ccc(O)c2C1=O` (single isomer, unassigned; peak iii) [Peak III, Teracryl shikonin] yielded an MIC [1, 8] of 4.0 to 6.0 µg/mL, a Zone of inhibition [2, 9] of 7.5 mm and a Zone of inhibition [3, 10] of 7.0 mm.
In the case of `CC(C)=CC[C@@H](O)C1=CC(=O)c2c(O)ccc(O)c2C1=O` (single isomer, unassigned) [Peak I, Shikonin], the anti-inflammatory activity [4] is listed as “anti-inflammatory activity”, the antimicrobial activity [5] is listed as “antimicrobial activity” and the MIC ([1]; Staphylococcus aureus) is listed as 4 to 5 µg/mL (≈ 13.9 to 17.3 µM). For the same compound, the zone of inhibition at 2000 µg/mL [2] was 18 mm, the “appearance of zone of inhibition” value ([2]; wild-type S. aureus, individual components, 2.0 mg/ml) was “the inhibition was not complete, as shown by an opaque, rather than a clear zone” and the zone of inhibition at 2000 µg/mL [3] was 18 mm. For the same compound, the “appearance of zone of inhibition” value ([3]; antibiotic-resistant S. aureus, individual components, 2.0 mg/ml) was “the inhibition was not complete, as shown by an opaque, rather than a clear zone”.
For `CC(C)=CCCC1=CC(=O)c2c(O)ccc(O)c2C1=O` [deoxyshikonin], the anti-inflammatory activity [4] is listed as “anti-inflammatory activity” and the antimicrobial activity [5] is listed as “antimicrobial activity”.
`CN(C)C1C(=O)C(C(N)=O)=C(O)C2(O)C(=O)C3=C(O)c4c(O)cccc4C(C)(O)C3CC12` (stereo not shown) [Tetracycline] showed an MIC [6] of over 20 µg/mL, an MIC [1, 11] of 1 to 2 µg/mL (≈ 2.25 to 4.5 µM) and an MIC [7, 12] of over 32 µg/mL. The MIC ([7]; read-out: Antibiotic Resistance (MIC), Strain 1206) was over 32 µg/mL.
In the case of `COc1cccc(OC)c1C(=O)N[C@@H]1C(=O)N2[C@@H]1SC(C)(C)[C@@H]2C(=O)O` [Methicillin], the MIC [7, 13] is reported as 32 µg/mL (≈ 84.1 µM), the MIC [7, 14] is reported as 128 µg/mL (≈ 336 µM) and the MIC [7, 15] is reported as over 128 µg/mL. For the same compound, the MIC [7, 16] was 32 µg/mL (≈ 84.1 µM), the MIC [7, 17] was 128 µg/mL (≈ 336 µM) and the MIC [7, 18] was over 128 µg/mL.
With `CCN1CCN(C(=O)N[C@@H](C(=O)N[C@@H]2C(=O)N3[C@@H]2SC(C)(C)[C@@H]3C(=O)O)c2ccccc2)C(=O)C1=O` [Piperacillin] the MIC [7, 13] was 32 µg/mL (≈ 61.8 µM), the MIC [7, 14] was 128 µg/mL (≈ 247 µM) and the MIC ([7]; Strain 4-15, read-out: Antibiotic Resistance (MIC)) was 32 µg/mL (≈ 61.8 µM). The MIC ([7]; Strain 4-44, read-out: Antibiotic Resistance (MIC)) was over 128 µg/mL, the MIC ([7]; Strain 4-50, read-out: Antibiotic Resistance (MIC)) was 32 µg/mL (≈ 61.8 µM) and the MIC [7, 15] was over 128 µg/mL. The MIC [7, 16] was 32 µg/mL (≈ 61.8 µM), the MIC [7, 17] was 128 µg/mL (≈ 247 µM) and the MIC [7, 18] was over 128 µg/mL.
For `CC1(C)S[C@@H]2[C@H](NC(=O)Cc3ccccc3)C(=O)N2[C@H]1C(=O)O` [Penicillin G], the MIC ([7]; read-out: Antibiotic Resistance (MIC), Strain 6515) was over 20 µg/mL.
Compound `CC(C)=CC[C@@H](OC(=O)CC(C)(C)O)C1=CC(=O)c2c(O)ccc(O)c2C1=O` (single isomer, unassigned; peak iv) [Peak IV, Hydroxyisovaleryl shikonin] has an MIC [1, 8] of 4.0 to 6.0 µg/mL, a Zone of inhibition [2, 9] of 7.0 mm and a Zone of inhibition [3, 10] of 7.0 mm.
In the case of `CC(C)=CC[C@@H](OC(=O)C(C)C)C1=CC(=O)c2c(O)ccc(O)c2C1=O` [Peak V, Isobutyl shikonin], the MIC [1, 19] is reported as 2 to 4 µg/mL (≈ 5.58 to 11.2 µM), the zone of inhibition at 2000 µg/mL [2, 20] is reported as 7 mm and the zone of inhibition at 2000 µg/mL [3, 21] is reported as 7 mm.
In the case of `CC(C)=CCC(OC(=O)C=C(C)C)C1=CC(=O)c2c(O)ccc(O)c2C1=O` (stereo not drawn) [Peak VI, β, β-dimethylacryl shikonin], the MIC [1, 19] is reported as under 2 µg/mL, the “activity ranking among the individual components (MIC)” value [1, 8] is reported as “the most active” and the zone of inhibition at 2000 µg/mL [2, 20] is reported as 7 mm. It also gave a zone of inhibition at 2000 µg/mL [3, 21] of 7 mm.
With `CC(=O)O[C@H](CC=C(C)C)C1=CC(=O)c2c(O)ccc(O)c2C1=O` (single isomer, unassigned) [Peak II, Acetyl shikonin] the MIC ([1]; Staphylococcus aureus) was 0.5 to 1 µg/mL (≈ 1.51 to 3.03 µM), the “activity ranking among the individual components (MIC)” value [1, 8] was “the most active” and the zone of inhibition at 2000 µg/mL [2] was 10 mm. It also gave a zone of inhibition at 2000 µg/mL [3] of 17 mm.
`CO[C@@H]1[C@@H](OC(N)=O)[C@@H](O)[C@H](Oc2ccc3c(O)c(NC(=O)c4ccc(O)c(CC=C(C)C)c4)c(=O)oc3c2C)OC1(C)C` [Novobiocin] gave an MIC [6] of over 20 µg/mL and an MIC [1, 11] of under 2 µg/mL.
Work on `CC[C@H]1OC(=O)[C@H](C)[C@@H](O[C@H]2C[C@@](C)(OC)[C@@H](O)[C@H](C)O2)[C@H](C)[C@@H](O[C@@H]2O[C@H](C)C[C@H](N(C)C)[C@H]2O)[C@](C)(O)C[C@@H](C)C(=O)[C@H](C)[C@@H](O)[C@]1(C)O` [Erythromycin] yielded an MIC [6] of over 20 µg/mL, an MIC [1, 11] of under 1 µg/mL and an MIC [7, 12] of over 32 µg/mL. For the same compound, the MIC ([7]; read-out: Antibiotic Resistance (MIC), Strain 5-75) was over 32 µg/mL, the MIC ([7]; read-out: Antibiotic Resistance (MIC), Strain 5-76) was over 32 µg/mL and the MIC ([7]; read-out: Antibiotic Resistance (MIC), Strain 5-77) was over 32 µg/mL. It also gave an MIC ([7]; read-out: Antibiotic Resistance (MIC), Strain 5-78) of 4 µg/mL (≈ 5.45 µM).
